Assay results published in US8247211B2, “Glycopeptide antibiotics” (American Cyanamid Company, priority 2001, dated 2012).

What was measured:
Assay in all cases: In vitro antibacterial evaluation: minimum inhibitory concentration (MIC), broth dilution method
Format in all cases: cell-based
[1] = test system: Staphylococcus sp.; details: 18 hours at 35° C.
In short: (§1)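 Susceptibility determined by NCCLS-recommended broth dilution (M7-A2), Muller-Hinton II […]. Concentration span 64-0.06 μg/mL, inoculum 5×10^5 CFU/mL. Isolates include strains resistant to methicillin, penicillin and/or vancomycin.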

[2] = test system: Escherichia coli
In short: as §1

[3] = test system: Enterococcus sp.
In short: as §1

[4] = test system: Streptococcus sp.; details: 18 hours at 35° C.
In short: as §1

[5] = test system: Escherichia coli; remark: listed apart in the source

For “α-O-[(Benzylamino)carbonyl]-cyclo[glycyl-β-methylphenylalanyl-O-(4-O-hexopyranosylhexopyranosyl)tyrosyl-3(2-iminoimidazolidin-4-yl)seryl-3-(3-hexopyranosyl-2-iminoimidazolidin-4-yl)serylseryl] [Example 257]”, the “MIC Coagulase Negative Staphylococcus (GC 4547)” value ([1]; Coagulase Negative Staphylococcus (GC 4547)) was 2 µg/mL, the “MIC Coagulase Negative Staphylococcus (GC 4548)” value ([1]; Coagulase Negative Staphylococcus (GC 4548)) was 2 µg/mL and the “MIC Coagulase Negative Staphylococcus (GC 4549)” value ([1]; Coagulase Negative Staphylococcus (GC 4549)) was 2 µg/mL. The “MIC Coagulase Negative Staphylococcus (GC 4551)” value ([1]; Coagulase Negative Staphylococcus (GC 4551)) was 8 µg/mL, the “MIC Coagulase Negative Staphylococcus (GC 6257)” value ([1]; Coagulase Negative Staphylococcus (GC 6257)) was 1 µg/mL and the “MIC Staphylococcus aureus (ATCC 29213)” value ([1]; Staphylococcus aureus (ATCC 29213)) was 0.5 µg/mL. For the same substance, the “MIC Staphylococcus aureus (GC 1131)” value ([1]; Staphylococcus aureus (GC 1131)) was 0.5 µg/mL, the “MIC Staphylococcus aureus (GC 3051)” value ([1]; Staphylococcus aureus (GC 3051)) was 0.5 µg/mL and the “MIC Staphylococcus aureus (GC 3053)” value ([1]; Staphylococcus aureus (GC 3053)) was 0.5 µg/mL. The “MIC Staphylococcus aureus (GC 4541)” value ([1]; Staphylococcus aureus (GC 4541)) was 0.5 µg/mL, the “MIC Staphylococcus aureus (GC 4542)” value ([1]; Staphylococcus aureus (GC 4542)) was 0.5 µg/mL and the “MIC Staphylococcus aureus (GC 4544)” value ([1]; Staphylococcus aureus (GC 4544)) was 0.5 µg/mL. For the same substance, the “MIC Staphylococcus aureus (GC 4545)” value ([1]; Staphylococcus aureus (GC 4545)) was 0.5 µg/mL, the “MIC Staphylococcus aureus-SMITH (GC 4543)” value ([1]; Staphylococcus aureus-SMITH (GC 4543)) was 0.5 µg/mL and the “MIC Staphylococcus haemolyticus (GC 4546)” value ([1]; Staphylococcus haemolyticus (GC 4546)) was 2 µg/mL. For the same substance, the “MIC Staphylococcus aureus (ATCC 29213)” value ([1]; broth dilution, strain ATCC 29213) was 0.5 µg/mL, the “MIC Staphylococcus aureus (GC 1131)” value ([1]; broth dilution, strain GC 1131) was 0.5 µg/mL and the “MIC Staphylococcus aureus (GC 3051)” value ([1]; broth dilution, strain GC 3051) was 0.5 µg/mL. The “MIC Staphylococcus aureus (GC 3053)” value ([1]; broth dilution, strain GC 3053) was 0.5 µg/mL, the “MIC Staphylococcus aureus (GC 4541)” value ([1]; broth dilution, strain GC 4541) was 0.5 µg/mL and the “MIC Staphylococcus aureus (GC 4542)” value ([1]; broth dilution, strain GC 4542) was 0.5 µg/mL. For the same substance, the “MIC Staphylococcus aureus (GC 4544)” value ([1]; broth dilution, strain GC 4544) was 0.5 µg/mL, the “MIC Staphylococcus aureus (GC 4545)” value ([1]; broth dilution, strain GC 4545) was 0.5 µg/mL and the “MIC Escherichia coli (GC 4559)” value ([2]; Escherichia coli (GC 4559)) was over 0.5 µg/mL. The “MIC Escherichia coli (GC 4560)” value ([2]; Escherichia coli (GC 4560)) was 0.5 µg/mL, the “MIC Enterococcus avium (GC 4558)” value ([3]; Enterococcus avium (GC 4558)) was 0.5 µg/mL and the “MIC Enterococcus faecalis (ATCC 29212)” value ([3]; Enterococcus faecalis (ATCC 29212)) was 0.5 µg/mL. For the same substance, the “MIC Enterococcus faecalis (GC 2242)” value ([3]; Enterococcus faecalis (GC 2242), 18 hours at 35° C.) was 0.5 µg/mL, the “MIC Enterococcus faecalis (GC 2691)” value ([3]; Enterococcus faecalis (GC 2691), 18 hours at 35° C.) was 0.5 µg/mL and the “MIC Enterococcus faecalis (GC 3059)” value ([3]; Enterococcus faecalis (GC 3059), 18 hours at 35° C.) was 0.5 µg/mL. The “MIC Enterococcus faecalis (GC 4552)” value ([3]; Enterococcus faecalis (GC 4552), 18 hours at 35° C.) was over 0.5 µg/mL, the “MIC Enterococcus faecalis (GC 4553)” value ([3]; Enterococcus faecalis (GC 4553)) was 0.5 µg/mL and the “MIC Enterococcus faecalis (GC 4554)” value ([3]; Enterococcus faecalis (GC 4554)) was over 0.5 µg/mL. The “MIC Enterococcus faecalis (GC 6189)” value ([3]; Enterococcus faecalis (GC 6189)) was 0.5 µg/mL, the “MIC Enterococcus faecium (GC 2243)” value ([3]; Enterococcus faecium (GC 2243)) was 16 µg/mL and the “MIC Enterococcus faecium (GC 4556)” value ([3]; Enterococcus faecium (GC 4556)) was 16 µg/mL. For the same substance, the “MIC Enterococcus faecium (GC 4557)” value ([3]; Enterococcus faecium (GC 4557)) was 2 µg/mL, the “MIC Enterococcus faecalis (ATCC 29212)” value ([3]; broth dilution, 18 hours at 35° C., strain ATCC 29212) was 0.5 µg/mL and the “MIC Enterococcus faecalis (GC 2242)” value ([3]; broth dilution, 18 hours at 35° C., strain GC 2242) was 0.5 µg/mL. For the same substance, the “MIC Enterococcus faecium (GC 2243)” value ([3]; broth dilution, 18 hours at 35° C., strain GC 2243) was 16 µg/mL, the “MIC Enterococcus faecalis (GC 2691)” value ([3]; broth dilution, 18 hours at 35° C., strain GC 2691) was 0.5 µg/mL and the “MIC Enterococcus faecalis (GC 3059)” value ([3]; broth dilution, 18 hours at 35° C., strain GC 3059) was 0.5 µg/mL. For the same substance, the “MIC Enterococcus faecalis (GC 4552)” value ([3]; broth dilution, 18 hours at 35° C., strain GC 4552) was over 0.5 µg/mL, the “MIC Enterococcus faecalis (GC 4553)” value ([3]; broth dilution, 18 hours at 35° C., strain GC 4553) was 0.5 µg/mL and the “MIC Enterococcus faecalis (GC 4554)” value ([3]; broth dilution, 18 hours at 35° C., strain GC 4554) was over 0.5 µg/mL. The “MIC Enterococcus faecium (GC 4556)” value ([3]; broth dilution, 18 hours at 35° C., strain GC 4556) was 16 µg/mL, the “MIC Enterococcus faecium (GC 4557)” value ([3]; broth dilution, 18 hours at 35° C., strain GC 4557) was 2 µg/mL and the “MIC Enterococcus avium (GC 4558)” value ([3]; broth dilution, 18 hours at 35° C., strain GC 4558) was 0.5 µg/mL. The “MIC Enterococcus faecalis (GC 6189)” value ([3]; broth dilution, 18 hours at 35° C., strain GC 6189) was 0.5 µg/mL, the “MIC Streptococcus agalactiae (GC 4564)” value ([4]; Streptococcus agalactiae (GC 4564)) was 2 µg/mL and the “MIC Streptococcus pneumoniae (ATCC 6301)” value ([4]; Streptococcus pneumoniae (ATCC 6301)) was 0.25 µg/mL. The “MIC Streptococcus pneumoniae (GC 1894)” value ([4]; Streptococcus pneumoniae (GC 1894)) was 0.25 µg/mL, the “MIC Streptococcus pneumoniae (GC 4565)” value ([4]; Streptococcus pneumoniae (GC 4565)) was 1 µg/mL and the “MIC Streptococcus pyogenes (GC 4563)” value ([4]; Streptococcus pyogenes (GC 4563)) was 0.12 µg/mL. For the same substance, the “MIC Streptococcus pneumoniae (ATCC 6301)” value ([4]; broth dilution, strain ATCC 6301) was 0.25 µg/mL, the “MIC Streptococcus pneumoniae (GC 1894)” value ([4]; broth dilution, strain GC 1894) was 0.25 µg/mL and the “MIC Streptococcus pyogenes (GC 4563)” value ([4]; broth dilution, strain GC 4563) was 0.12 µg/mL. The “MIC Streptococcus agalactiae (GC 4564)” value ([4]; broth dilution, strain GC 4564) was 2 µg/mL, the “MIC Streptococcus pneumoniae (GC 4565)” value ([4]; broth dilution, strain GC 4565) was 1 µg/mL and the “MIC Escherichia coli (ATCC 25922)” value [5] was over 0.5 µg/mL.
